These are literature values, as cited in patent publication EP3959200B1, “NEW TRIAZOLE AND TRIAZOLOTHIADIAZINE DERIVATIVES EXERTING CYTOTOXIC AND APOPTOTIC EFFECTS ON A549 CELLS THROUGH AKT INHIBITION” (Anadolu Universitesi, priority 2020, dated 2022).

In series [1] the test system is Huh7 cell line. The note with it: cited from earlier work.
Series [2] has as its system leukemia (MOLT-4) cell line. The settings on record: cited from earlier work.
Series [3] relates to kidney cancer (OU-31) cell line. Further details: concentration or dose not given beside the values. The note with it: cited from earlier work.
Series [4] deals with PC-3 cells. The note with it: cited from earlier work.
Series [5] has as its system K562 cells. The settings on record: cited from earlier work.
For series [6], the system named is 60 cell lines derived from leukemia, non-small cell lung cancer, skin, ovarian, prostate and breast cancers. The settings on record: all cancer types tested; cited from earlier work.
Series [7] has as its system human lung cancer (A549). The settings on record: cited from earlier work.
Series [8] has as its system human breast cancer (MCF-7). The note with it: cited from earlier work.
The target in series [9] is alkaline phosphatase (ALP) enzyme. The settings on record: cited from earlier work.
Series [10] relates to Ehrlich acid tumor (EAC). The note with it: 25 mg/kg, body weight; cited from earlier work.
Series [11] relates to human gastric cancer (NUGC), human liver cancer (HA22T and HepG2), nasopharyngeal cancer (HONE1), human breast cancer (MCF). The note with it: all other cancer cells tested except DLD1 cells; cited from earlier work.
Series [12] concerns normal fibroblast (WI38) cells. The settings on record: cited from earlier work.
Series [13] relates to A549. The note with it: cited from earlier work.
The test system of series [14] is 60 cell lines derived from lung, colon, skin, kidney, ovarian, central nervous system and blood cancers. The note with it: all cells tested; cited from earlier work.
Series [15] concerns leukemia (CCRF-CEM, RPMI-8226 and SR), non-small cell lung cancer (HOP-92), melanoma (UACC-62) and kidney cancer (UO-31) cells. The settings on record: across CCRF-CEM, RPMI-8226, SR, HOP-92, UACC-62, UO-31; cited from earlier work.

Usually IC50 stands for the concentration that gives 50% inhibition. Turning to `CCc1cccc2c3c([nH]c12)C(CC)(Cc1n[nH]c(=S)n1C)OCC3` (stereo not drawn) [5-[(1,8-Diethyl-1,3,4,9-tetrahydropyrano[3,4-b]indole-1-yl)methyl]-4-methyl-2,4-dihydro-3H-1,2,4-triazole-3-thione], the IC50 in series [1] was 4.29 µM.

On to `O=C(CSc1nnc2n1N=C(c1ccc(Cl)cc1)CS2)c1ccc(F)cc1` [2-((6-(4-Chlorophenyl)-7H-[1,2,4]triazolo[3,4-b][1,3,4]thiadiazine-3-yl)thio-1-(4-fluorophenyl)ethanone], for which the figures for the growth in [2] and in series [3] were 49.82% and 48.14%, respectively.

With `Cc1ccc(C(C)C)c(OCc2nnc(SCC(=O)Nc3ccc(S(N)(=O)=O)cc3)n2Cc2ccccc2)c1` [2-{ [3-[[5-Methyl-2-(propane-2-yl)phenoxy]methyl)-4-benzyl-4,5-dihydro-1H-1,2,4-triazole-5-yl]sulfanyl}-N-(4-sulfamoilphenyl)acetamide], the IC50 in series [4] is 5.96 µM.

As to `CC(=O)Nc1ccc(OCC2=NNC(SCC(=O)Nc3ccc(Br)cc3)N2Cc2ccccc2)cc1` (stereo not drawn) [2-[(3-{[4-(acetylamino)phenoxy]methyl}-4-benzyl-4,5-dihydro-1H-1,2,4-triazole-5-yl)sulfanyl]-N-(4-bromophenyl)acetamide], the IC50 in [5] was 7.71 µM.

Broadly, the GI50 is the concentration giving 50% growth inhibition. For `Fc1cc(-c2nnc3n2N=C(c2ccc(Cl)cc2)CS3)c(Cl)cc1Cl` [3-(2,4-Dichloro-5-fluorophenyl)-6-(4-chlorophenyl)-1,2,4-triazolo[3,4-b]-1,3,4-thiadiazine], the GI50 in series [6] was 1.06 to 25.4 µM.

Take `CC(C)(c1ccc(Cl)cc1)c1nnc2n1N=C(c1ccc(OC(F)(F)F)cc1)CS2` [3-(2-(4-chlorophenyl)propane-2-yl)-6-(4-(trifluoromethoxy)phenyl)-7H-[1,2,4]triazolo[3,4-b] [1,3,4]thiadiazine]: the figures for the IC50 in series [7] and in [8] were 18.2 µM and 10.5 µM, respectively.

In the case of `O=c1oc2ccccc2cc1C1=Nn2c(nnc2-c2cc3ccccc3oc2=O)SC1` [3,3'-(7/7-[1,2,4]Triazolo[3,4-b][1,3,4]thiadiazine-3,6-diyl)-bis(2H-chromen-2-one)], the IC50 in series [9] was 1.15 ± 1 µM.

Consider `Nn1c(S)nnc1-c1ccccc1Cl` [4-amino-5-mercapto-3-(2-chlorophenyl)-1,2,4-triazole], for which, in series [10], the “tumor cell inhibition (TCI)” value was 63.59%.

For `c1ccc(C2=Nn3c(nnc3-c3ccncc3)SC2)cc1` [6-phenyl-3-(pyridine-4-yl)-7H-[1,2,4]triazolo[3,4-b][1,3,4]thiadiazine], the IC50 is below 0.8 µM in series [11] and above 10 µM in [12].

On to `Cc1ccc(C(C)C)c(OCC2=NNC(SCC(=O)Nc3ccc(Cl)cc3)N2Cc2ccccc2)c1` (stereo not drawn) [2-{[3-[[5-methyl-2-(propane-2-yl)phenoxy]methyl]-4-benzyl-4,5-dihydro-1H-1,2,4-triazole-5-yl]sulfanyl}-N-(4-chlorophenyl)acetamide], for which the IC50 in series [13] was 7.9 µM.

With `Fc1cc(C2=Nn3c(COc4ccccc4Cl)nnc3SC2=Cc2ccc(Cl)cc2)c(Cl)cc1Cl` [7-(4-chlorobenzylidene)-6-(2,4-dichloro-5-fluorophenyl)-3-((2-chlorophenoxy)methyl)-1,2,4-triazolo[3,4-b]-1,3,4-thiadiazine], the GI50 in [14] is below 10 µM.

For `OC(c1ccccc1)c1nnc(SCc2ccccc2)n1Cc1ccccc1` (stereo not drawn) [4-Benzyl-3-(benzylthio)-5-[hydroxy(phenyl)methyl]-4H-1,2,4-triazole], in series [15], the antiproliferative activity is recorded as 25-58%.
